Results published in PMC6272242, “Topical Anti-inflammatory Activity of New Hybrid Molecules of Terpenes and Synthetic Drugs” (Molecules, 2015).

How the values were obtained:
[1] = system: hepatocytes HepG2; assay: Cytotoxicity, MTT reduction assay, HepG2; format: cell-based; details: Homo sapiens, confluent cultures, 24 h, read-out: IC50 ± SD, HepG2
Method: The human cell lines, MRC-5 normal lung fibroblasts (CCL-171), AGS gastric epithelial adenocarcinoma cells (CRL-1739) and HepG2 hepatocellular carcinoma cells (HB-8065) were obtained from the American Type Culture Collection (ATCC, Manasas, VA, USA). The cells were grown as monolayers in the following media: MRC-5 and HepG2 in MEM and AGS in Ham F-12. The MEM medium contained 2 mM L-glutamine, 1 mM sodium pyruvate and 1.5 g/L sodium bicarbonate. Ham F-12 was supplemented with 2 mM L-glutamine and 1.5 g/L sodium bicarbonate. Both media were supplemented with 10% heat inactivated fetal bovine serum, 100 IU/mL penicillin and 100 µg/mL streptomycin in a humidified incubator with 5% CO2 in air at 37 °C. For the experiments, cells were plated at a density of 25,000 cells/mL in 96-well plates. […] Compounds were first dissolved in DMSO and then in medium. The final concentration of DMSO in the test medium and controls was 1%. […] The cell viability for each compound was calculated comparing the cell viability of the untreated controls (100%) with the cell viability of the different concentrations of each compound. Each concentration was tested in quadruplicate together with the control and repeated three times in separate experiments. Cell viability was determined at the end of the incubation by means of the MTT reduction assay. […] Culture media, antibiotics and fetal bovine serum were obtained from Invitrogen Corp. (Waltham, MA, USA). Other reagents were purchased from Sigma Chemical Co. For the animal experiments all values are presented as median ± SEM. Drug-induced changes were statistically estimated using the Kruskall-Wallis test for comparison between groups and testing, and the Mann-Whitney test was used in the independent data for individual comparisons. The effects were considered significant if p ≤ 0.05. For cytotoxicity experiments, each concentration was tested in quadruplicate together with the control and repeated three times in different experiments. Results are expressed as IC50 values (µM) ± S.D.

[2] = system: mice ear edema induced by arachidonic acid; assay: Topical anti-inflammatory effect, arachidonic acid (AA) induced ear edema in mice; format: in vivo; details: 3.2 µmol/mouse; for inhibition in vivo at 3.2 µmol/animal / % TAAA ± SEM (percent reduction of the ear edema, arachidonic acid): 1 h after AA; for inhibition in vivo at 3.2 µmol/animal: n = 8, read-out: % TAAA ± SEM (percent reduction of the ear edema, arachidonic acid); for % TAAA ± SEM (percent reduction of the ear edema, arachidonic acid): n = 8
Method: (§1) The inflammatory agent arachidonic acid (AA) and phorbol 12-myristate 13-acetate (TPA) were used to assess the anti-inflammatory effect/action mechanism of the starting compounds, new synthetic products and reference drugs. […] Adult male CF-1 mice (20–25 g), obtained from a stock maintained at the Chilean Public Health Institute, were used to assess the anti-inflammatory effect. All animals were housed in a climate- and light-controlled room with a 12 h light-dark cycle, fasted overnight before the day of the assays, with free access to water. The anti-inflammatory activity of each compound was evaluated in groups of 8 treated and 16 control mice. Due to ethical considerations, the number of animals was kept to a minimum and single dose experiments were carried out.
(§2) The pro-inflammatory agents TPA and AA, the reference drugs indomethacin and nimesulide were from Sigma. […] After 5 min, inflammation was induced by the application of 20 µL TPA or AA (5 mg/mL) in acetone. […] Control subjects only received TPA or AA. Both, the sample and the TPA or AA, were applied to the inner (10 µL) and outer (10 µL) surfaces of the right ear. The left ear only received acetone. Mice were sacrificed by cervical dislocation (after 6 h of TPA and 1 h AA), and a 6 mm diameter section of the right and left ears were cut and weighed. The weight differences between both ear sections correspond to the edema value. The percent topical anti-inflammatory activity (TA) was evaluated according to the following equation: (1) %TA=[ Wc−Ws/Wc]× 100 where Wc and Ws are the different median values of the weights of the right and the left ear sections of the control and the treated animals, respectively.
(§3) For the animal experiments all values are presented as median ± SEM. Drug-induced changes were statistically estimated using the Kruskall-Wallis test for comparison between groups and testing, and the Mann-Whitney test was used in the independent data for individual comparisons. The effects were considered significant if p ≤ 0.05. For cytotoxicity experiments, each concentration was tested in quadruplicate together with the control and repeated three times in different experiments. Results are expressed as IC50 values (µM) ± S.D.

[3] = system: human lung fibroblasts (MRC-5), gastric epithelial cells (AGS) and hepatocytes HepG2; assay: Cytotoxicity, MTT reduction assay, summary over the three cell lines; format: cell-based; details: Homo sapiens; MRC-5, AGS and HepG2, 24 h, MTT; read-out: IC50 values, range over the three cell lines
Method: (§4) The human cell lines, MRC-5 normal lung fibroblasts (CCL-171), AGS gastric epithelial adenocarcinoma cells (CRL-1739) and HepG2 hepatocellular carcinoma cells (HB-8065) were obtained from the American Type Culture Collection (ATCC, Manasas, VA, USA). The cells were grown as monolayers in the following media: MRC-5 and HepG2 in MEM and AGS in Ham F-12. The MEM medium contained 2 mM L-glutamine, 1 mM sodium pyruvate and 1.5 g/L sodium bicarbonate. Ham F-12 was supplemented with 2 mM L-glutamine and 1.5 g/L sodium bicarbonate. Both media were supplemented with 10% heat inactivated fetal bovine serum, 100 IU/mL penicillin and 100 µg/mL streptomycin in a humidified incubator with 5% CO2 in air at 37 °C. For the experiments, cells were plated at a density of 25,000 cells/mL in 96-well plates. […] Compounds were first dissolved in DMSO and then in medium. The final concentration of DMSO in the test medium and controls was 1%. […] The cell viability for each compound was calculated comparing the cell viability of the untreated controls (100%) with the cell viability of the different concentrations of each compound. Each concentration was tested in quadruplicate together with the control and repeated three times in separate experiments. Cell viability was determined at the end of the incubation by means of the MTT reduction assay. Results were converted to percentage of controls, and the IC50 values were graphically obtained from the dose-response curves. Culture media, antibiotics and fetal bovine serum were obtained from Invitrogen Corp. (Waltham, MA, USA). Other reagents were purchased from Sigma Chemical Co. For the animal experiments all values are presented as median ± SEM. Drug-induced changes were statistically estimated using the Kruskall-Wallis test for comparison between groups and testing, and the Mann-Whitney test was used in the independent data for individual comparisons. The effects were considered significant if p ≤ 0.05. For cytotoxicity experiments, each concentration was tested in quadruplicate together with the control and repeated three times in different experiments. Results are expressed as IC50 values (µM) ± S.D.

[4] = system: gastric epithelial cells (AGS); assay: Cytotoxicity, MTT reduction assay, AGS; format: cell-based; details: Homo sapiens, Epithelial cell, confluent cultures, 24 h, read-out: IC50 ± SD, AGS
Method: as §4

[5] = system: mice ear edema induced by 12-O-tetradecanoylphorbol 13-acetate; assay: Topical anti-inflammatory effect, 12-O-tetradecanoylphorbol 13-acetate (TPA) induced ear edema in mice; format: in vivo; details: 1.4 µmol/mouse; for inhibition in vivo at 1.4 µmol/animal / % TATPA ± SEM (percent reduction of the ear edema, TPA): 6 h after TPA; for inhibition in vivo at 1.4 µmol/animal: n = 8, read-out: % TATPA ± SEM (percent reduction of the ear edema, TPA); for % TATPA ± SEM (percent reduction of the ear edema, TPA): n = 8
Method: as §1, §2, §3

[6] = system: lung fibroblasts (MRC-5); assay: Cytotoxicity, MTT reduction assay, MRC-5; format: cell-based; details: Homo sapiens, MRC5, confluent cultures, 24 h, read-out: IC50 ± SD, MRC-5
Method: as §4

Row | Structure (SMILES) | IC50 [1] [µM] | inhibition in vivo at 3.2 µmol/animal [2] [%] | IC50 [3] [µM] | IC50 [4] [µM] | inhibition in vivo at 1.4 µmol/animal [5] [%] | IC50 [6] [µM] | % TAAA ± SEM (percent reduction of the ear edema, arachidonic acid) [2] | Activity in the AA model, in words [2] | Activity in the TPA assay, in words [5] | % TATPA ± SEM (percent reduction of the ear edema, TPA) [5]
1 | C=C1CCC2[C@](C)(CCC[C@]2(C)C(=O)OC)[C@H]1CC[C@@H](C)CCOC(=O)[C@@H](C)c1ccc(CC(C)C)cc1 (mixture of isomers) [Compound 9, Imbricatol-15-yl ibuprofenate methyl ester] | 746 ± 38 | 14.9 ± 7.4 | ≥ 601 | 623 ± 39 | 41.2 ± 6.2 | 706 ± 35 | – | – | – | –
2 | CS(=O)(=O)Nc1ccc([N+](=O)[O-])cc1Oc1ccccc1 [Nimesulide, reference compound] | – | 48.9 | – | – | – | – | ↑48.9 ± 5.5 % | – | – | –
3 | C=C1CCC2[C@](C)(CCC[C@]2(C)C(=O)O)[C@H]1CC[C@@H](C)CCOC(=O)[C@@H](C)c1ccc(CC(C)C)cc1 (mixture of isomers) [Compound 8, Imbricatol-15-yl ibuprofenate] | 79 ± 8 | 10 ± 6 | 23 to 79 | 23 ± 1 | 40.3 ± 2.4 | 34 ± 2 | – | – | – | –
4 | COc1ccc2cc([C@H](C)C(=O)O[C@H]3CC[C@@]4(C)C(CC[C@]5(C)C4CC=C4C6CC(C)(C)CC[C@]6(C(=O)O)CC[C@]45C)C3(C)C)ccc2c1 (stereo partly shown) [Compound 14, Oleanoyl naproxenate] | > 1000 | 9 ± 11.3 | – | 486 ± 26 | 55.5 ± 5.1 | 554 ± 22 | – | – | – | –
5 | COC(=O)[C@]12CCC(C)(C)CC1C1=CCC3[C@@]4(C)CC[C@H](OC(=O)[C@@H](C)c5ccc(CC(C)C)cc5)C(C)(C)C4CC[C@@]3(C)[C@]1(C)CC2 (mixture of isomers) [Compound 13, Oleanoyl ibuprofenate methyl ester] | 742 ± 48 | 19.5 ± 9.2 | – | 454 ± 21 | 47.4 ± 2.6 | 402 ± 20 | – | – | – | –
6 | C=C1CCC2[C@](C)(CCC[C@]2(C)C(=O)OC)[C@H]1CC[C@@H](C)CCOC(=O)[C@@H](C)c1ccc2cc(OC)ccc2c1 (stereo partly shown) [Compound 11, Imbricatol-15-yl naproxenate methyl ester] | > 1000 | 20 ± 9.4 | ≥ 601 | 601 ± 25 | 42.7 ± 8.3 | 907 ± 54 | – | – | – | –
7 | CC1(C)CC[C@]2(C(=O)O)CC[C@]3(C)C(=CC[C@@H]4[C@@]5(C)CC[C@H](O)C(C)(C)[C@@H]5CC[C@]43C)[C@@H]2C1 [Compound 3, oleanolic acid, reference compound] | 170 ± 5 | 2.7 ± 7.5 | – | 234 ± 16 | 70.2 ± 8.3 | 186 ± 9 | – | inactive | active | 70.2 ± 8.3 *^,a %
8 | CC(C)Cc1ccc([C@H](C)C(=O)O[C@H]2CC[C@@]3(C)C(CC[C@]4(C)C3CC=C3C5CC(C)(C)CC[C@]5(C(=O)O)CC[C@]34C)C2(C)C)cc1 (mixture of isomers) [Compound 12, Oleanoyl ibuprofenate] | > 1000 | 56.8 | – | 526 ± 19 | 79.9 | 616 ± 32 | 56.8 ± 7.4 % | significant effect | – | 79.9 ± 10.6 %
9 | COc1ccc2cc([C@H](C)C(=O)O)ccc2c1 [Compound 5, naproxen, reference compound] | – | – | – | > 1000 | 29.9 ± 6.2 | > 1000 | – | inactive | – | –
10 | COc1ccc2c(c1)c(CC(=O)O)c(C)n2C(=O)c1ccc(Cl)cc1 [Indomethacin, reference compound] | – | – | – | – | 92.9 | – | – | – | – | ↑92.9 ± 13.2 %
11 | COC(=O)[C@]12CCC(C)(C)CC1C1=CCC3[C@@]4(C)CC[C@H](OC(=O)[C@@H](C)c5ccc6cc(OC)ccc6c5)C(C)(C)C4CC[C@@]3(C)[C@]1(C)CC2 (stereo partly shown) [Compound 15, Oleanoyl naproxenate methyl ester] | > 1000 | 2.7 ± 8.1 | – | 593 ± 31 | 80 | 816 ± 42 | – | – | – | 80.0 ± 11.0 %
12 | COc1cc([C@@H]2c3cc4c(cc3[C@@H](O[C@@H]3O[C@@H]5CO[C@@H](C)O[C@H]5[C@H](O)[C@H]3O)[C@H]3COC(=O)[C@H]23)OCO4)cc(OC)c1O [Etoposide, reference compound] | 2.4 ± 0.1 | – | – | 0.36 ± 0.02 | – | 3.9 ± 0.1 | – | – | – | –
